{"source": "patent US12098109B2", "about": "“Reaction methods for producing nitrogenous phosphoryl compounds that are in situ fluid compositions” (SOILGENIC TECHNOLOGIES, LLC, priority 2021, dated 2024)", "key": {"[1]": {"assay": "1% dispersibility in water, 1 gram of sample in 99 grams of water"}, "[2]": {"assay": "Flowability by elapsed flow-out time", "assay_type": "physicochemical", "experimental": "(§1) Stability was determined by the measurement of the top clear layer after 3 days @ 50° C. Flowability was determined by measuring the elapsed time that it took for 4 grams of the 5 gram sample to flow out of a container with a 0.9 cm opening @ 25° C."}, "[3]": {"assay": "Sedimentation of inorganic chloride particles of Example 14 after adding organic liquids", "assay_type": "physicochemical"}, "[4]": {"assay": "Stability by top clear layer after 3 days @ 50 C", "assay_type": "physicochemical", "experimental": "as §1"}, "[5]": {"system": "West Texas Soil (Estacado Clay Loam)", "assay": "Ammonia generation from treated urea on soil, headspace NH3 by Draeger am-5000 meter", "details": "for Measuring Ammonia Generation, Days Ran 3: day 3; for Measuring Ammonia Generation, Days Ran 4: day 4; for Measuring Ammonia Generation, Days Ran 5: day 5; for Measuring Ammonia Generation, Days Ran 6: day 6; for Measuring Ammonia Generation, Days Ran 7: day 7; for Measuring Ammonia Generation, Days Ran 10: day 10; for Measuring Ammonia Generation, Days Ran 11: day 11; for Measuring Ammonia Generation, Days Ran 13: day 13"}, "[6]": {"system": "West Texas Soil (Estacado Clay Loam)", "assay": "NH4Cl vs DCD as nitrification inhibitor, ammonia generation from treated urea", "details": "compared to DCD"}, "[7]": {"system": "West Texas Soil (Estacado Clay Loam)", "assay": "Ammonia generation, N Yield vs N Yield + NH4Cl solutions with urea dropped onto soil sample", "details": "in the presence of NBPT"}, "[8]": {"details": "4% organic liquid added to Example 56"}, "[9]": {"details": "4% organic liquid added to Example 56, time for 4 grams of 5 gram sample to flow out of 0.9 cm opening @ 25 C"}, "[10]": {"details": "4% organic liquid added to Example 56, top clear layer after 3 days @ 50 C"}, "[11]": {"details": "organic liquid added to Example 56 at a 4% level"}, "[12]": {"details": "One Month Storage of treated urea"}, "[13]": {"details": "Two Month Storage of treated urea"}}, "note": "Like-named read-outs stand apart in the source and are kept apart here.", "data": [{"compound": "C[S+](C)[O-]", "note": "[dimethyl sulfoxide]", "values": [{"measurement": "1% dispersibility in water rating", "setting": "[1]; [8]", "value": 4}, {"measurement": "seconds (flowability)", "setting": "[2]; [9]", "value": 20.3, "unit": "s"}, {"measurement": "Clear layer in inches of a 4 inch sample", "setting": "[3]; 8 grams added/25 grams of Example 14, within 24 hours of standing", "value": "<1", "unit": "inches"}, {"measurement": "Clear layer in inches of a 4 inch sample", "setting": "[3]; 25 grams added/25 grams of Example 14, within 24 hours of standing", "value": 1, "unit": "inches"}, {"measurement": "Clear layer (cm)", "setting": "[4]; [10]", "value": 0, "unit": "cm"}]}, {"compound": "OCC(O)CO", "note": "[Glycerin]", "values": [{"measurement": "1% dispersibility in water rating", "setting": "[1]; [8]", "value": 6}, {"measurement": "effect on Example 56's dispersibility in water", "setting": "[1]; [11]", "value": "improve Example 56's dispersibility in water significantly"}, {"measurement": "seconds (flowability)", "setting": "[2]; [9]", "value": 2.35, "unit": "s"}, {"measurement": "Clear layer (cm)", "setting": "[4]; [10]", "value": 0.4, "unit": "cm"}]}, {"compound": "CC[N+](C)(CC)CC.[Cl-]", "note": "[triethyl methyl ammonium chloride]", "values": [{"measurement": "Clear layer in inches of a 4 inch sample", "setting": "[3]; 2 grams added/25 grams of Example 14, within 24 hours of standing", "value": 0, "unit": "inches"}]}, {"compound": "CCCCNP(N)(N)=S", "note": "[NBPT, N-(n-butyl)-thiophosphoric triamide]", "values": [{"measurement": "Measuring Ammonia Generation, Days Ran 3", "setting": "[5]; Initial", "value": 9, "unit": "ppm"}, {"measurement": "Measuring Ammonia Generation, Days Ran 4", "setting": "[5]; Initial", "value": 10, "unit": "ppm"}, {"measurement": "Measuring Ammonia Generation, Days Ran 5", "setting": "[5]; Initial", "value": 4, "unit": "ppm"}, {"measurement": "Measuring Ammonia Generation, Days Ran 6", "setting": "[5]; Initial", "value": 4, "unit": "ppm"}, {"measurement": "Measuring Ammonia Generation, Days Ran 7", "setting": "[5]; Initial", "value": 14, "unit": "ppm"}, {"measurement": "Measuring Ammonia Generation, Days Ran 10", "setting": "[5]; Initial", "value": 97, "unit": "ppm"}, {"measurement": "Measuring Ammonia Generation, Days Ran 11", "setting": "[5]; Initial", "value": 88, "unit": "ppm"}, {"measurement": "Measuring Ammonia Generation, Total", "setting": "[5]; Initial, total of days 3-11", "value": 226, "unit": "ppm"}, {"measurement": "Measuring Ammonia Generation, Days Ran 3", "setting": "[5]; [12]", "value": 111, "unit": "ppm"}, {"measurement": "Measuring Ammonia Generation, Days Ran 4", "setting": "[5]; [12]", "value": 51, "unit": "ppm"}, {"measurement": "Measuring Ammonia Generation, Days Ran 5", "setting": "[5]; [12]", "value": 57, "unit": "ppm"}, {"measurement": "Measuring Ammonia Generation, Days Ran 6", "setting": "[5]; [12]", "value": 98, "unit": "ppm"}, {"measurement": "Measuring Ammonia Generation, Days Ran 7", "setting": "[5]; [12]", "value": 236, "unit": "ppm"}, {"measurement": "Measuring Ammonia Generation, Days Ran 10", "setting": "[5]; [12]", "value": 349, "unit": "ppm"}, {"measurement": "Measuring Ammonia Generation, Days Ran 11", "setting": "[5]; [12]", "value": 251, "unit": "ppm"}, {"measurement": "Measuring Ammonia Generation, Days Ran 12", "setting": "[5]; One Month Storage of treated urea, day 12", "value": 301, "unit": "ppm"}, {"measurement": "Measuring Ammonia Generation, Days Ran 13", "setting": "[5]; [12]", "value": 153, "unit": "ppm"}, {"measurement": "Measuring Ammonia Generation, Total", "setting": "[5]; One Month Storage of treated urea, total of days 3-13", "value": 1607, "unit": "ppm"}, {"measurement": "Measuring Ammonia Generation, Days Ran 1", "setting": "[5]; Two Month Storage of treated urea, day 1", "value": 103, "unit": "ppm"}, {"measurement": "Measuring Ammonia Generation, Days Ran 5", "setting": "[5]; [13]", "value": 99, "unit": "ppm"}, {"measurement": "Measuring Ammonia Generation, Days Ran 6", "setting": "[5]; [13]", "value": 32, "unit": "ppm"}, {"measurement": "Measuring Ammonia Generation, Days Ran 7", "setting": "[5]; [13]", "value": 129, "unit": "ppm"}, {"measurement": "Measuring Ammonia Generation, Days Ran 8", "setting": "[5]; Two Month Storage of treated urea, day 8", "value": 159, "unit": "ppm"}, {"measurement": "Measuring Ammonia Generation, Days Ran 9", "setting": "[5]; Two Month Storage of treated urea, day 9", "value": 130, "unit": "ppm"}, {"measurement": "Measuring Ammonia Generation, Days Ran 13", "setting": "[5]; [13]", "value": 152, "unit": "ppm"}, {"measurement": "Measuring Ammonia Generation, Days Ran 14", "setting": "[5]; Two Month Storage of treated urea, day 14", "value": 66, "unit": "ppm"}, {"measurement": "Measuring Ammonia Generation, Days Ran 15", "setting": "[5]; Two Month Storage of treated urea, day 15", "value": 49, "unit": "ppm"}, {"measurement": "Measuring Ammonia Generation, Days Ran 16", "setting": "[5]; Two Month Storage of treated urea, day 16", "value": 68, "unit": "ppm"}, {"measurement": "Measuring Ammonia Generation, Total", "setting": "[5]; Two Month Storage of treated urea, total", "value": 884, "unit": "ppm"}]}, {"compound": "CN1CCCC1=O", "note": "[N-methyl pyrrolidone]", "values": [{"measurement": "1% dispersibility in water rating", "setting": "[1]; [8]", "value": 3}, {"measurement": "seconds (flowability)", "setting": "[2]; [9]", "value": 2.49, "unit": "s"}, {"measurement": "Clear layer (cm)", "setting": "[4]; [10]", "value": 0.45, "unit": "cm"}]}, {"compound": "CC1(C)OCC(CO)O1", "note": "(stereo not drawn) [2,2-dimethyl-l,3-dioxolane-4-methanol, 2,2-dimethyl-1,3-dioxolane-4-methanol]", "values": [{"measurement": "1% dispersibility in water rating", "setting": "[1]; [8]", "value": 6}, {"measurement": "effect on Example 56's dispersibility in water", "setting": "[1]; [11]", "value": "improve Example 56's dispersibility in water significantly"}, {"measurement": "seconds (flowability)", "setting": "[2]; [9]", "value": 3.85, "unit": "s"}, {"measurement": "Clear layer (cm)", "setting": "[4]; [10]", "value": 0.3, "unit": "cm"}]}, {"compound": "Cl.N", "note": "[NH4Cl, ammonium chloride]", "values": [{"measurement": "performance as a nitrification inhibitor", "setting": "[6]", "value": "equivalent to DCD"}, {"measurement": "behaviour in ammonia generation test", "setting": "[7]", "value": "performing as a nitrification inhibitor"}]}, {"compound": "butyl carbonate", "values": [{"measurement": "Clear layer in inches of a 4 inch sample", "setting": "[3]", "value": 0, "unit": "inches"}]}, {"compound": "CCOP(=O)(OCC)OCC", "note": "[triethyl phosphate]", "values": [{"measurement": "1% dispersibility in water rating", "setting": "[1]", "value": 6}, {"measurement": "effect on Example 56's dispersibility in water", "setting": "[1]", "value": "improve Example 56's dispersibility in water significantly"}, {"measurement": "seconds (flowability)", "setting": "[2]", "value": 4.03, "unit": "s"}, {"measurement": "Clear layer in inches of a 4 inch sample", "setting": "[3]", "value": 0, "unit": "inches"}, {"measurement": "Clear layer (cm)", "setting": "[4]", "value": 0.4, "unit": "cm"}]}]}
